Measurements published in patent US5478728A, “Process for antibody combining site-catalyzed SYN elimination in the formation of a CIS olefin” (The Scripps Research Institute, priority 1994, dated 1995).
Entries after “also recorded” stand apart in the source; their conditions may differ.

How the values were obtained:
[1] = test system: antibody 1D4; test: Inhibition of 1D4 catalytic activity by hapten; assay type: biochemical, mouse; details: addition of hapten; substrate Compound 1
Method: (§1) Immunization with the KLH conjugate and generation of monoclonal antibodies were performed as described hereinafter. Twenty-six monoclonal antibodies specific for Compound 5 were assayed for catalysis. The rate of elimination of substrate Compound 1 to product Compounds 3 or 4 was assayed in the absence and presence of antibody at 37° C. Thus, a solution of antibody in 100 mM CHES buffer, pH 9.0 at 37° C., was treated with substrate Compound 1 in DMSO to provide a final solution containing […] in 15 percent aqueous DMSO, 100 mM CHES, pH 9.0. All reaction rates were determined by analytical reverse phase HPLC (Vydac-C18, 41 percent acetonitrile in H2 O/0.1 percent trifluoroacetic acid) by measuring product formation relative to 4-methyl-3-nitroanisole as a standard.
The initial rate of syn elimination by 1D4, when measured as a function of substrate Compound 1 concentrations followed Michaelis-Menten kinetics.

[2] = Background elimination and isomerization in the absence of antibody; assay type: physicochemical; details: for elimination product formed in the absence of antibody / isomerization of olefinic product under background reaction conditions: 15 percent aq DMSO, 100 mM CHES buffer; for isomerization of olefinic product under background reaction conditions: no antibody
Method: Reaction conditions: 15 percent aq DMSO, 100 mM CHES buffer, pH 9.0, 37° C.
as §1

SMILES | isomerization of olefinic product under background reaction conditions ([2]; pH 9.0, 37° C.) | elimination product formed in the absence of antibody ([2]; pH 9.0, 37° C.) | also measured
N[C@@]1(C(=O)c2ccccc2)[C@@H]2C[C@@H](C[C@H]2OC(=O)CCC(=O)O)[C@@H]1c1ccccc1 (relative stereo) [Compound 5, (1R*,2S*,4R*,5S*,6S*)-6-Amino-6-benzoyl-5-phenylbicyclo[2.2.1]heptane-2-hemisuccinate] | – | – | inhibition of the catalytic activity of 1D4 [1]: competitively inhibited
C[C@@H](C(=O)c1ccccc1)[C@H](F)c1ccccc1 (relative stereo) [Compound 2] | – | eliminates entirely to the trans olefin Compound 3 | –
C[C@@H](C(=O)c1ccccc1)[C@@H](F)c1ccccc1 (relative stereo) [Compound 1] | – | exclusively the trans olefin Compound 3; also recorded: only product Compound 3 was generated | first order rate constant of elimination to Compound 3 ([2]; absence of antibody, 15 percent aqueous DMSO, 100 mM CHES, pH 9.0, 37° C.): 0.000248 min⁻¹; formation of cis product Compound 4 in the absence of antibody ([2]; reaction conditions pH 9.0, 37° C.): immeasurably slow

Further lines, with some results ahead:

isomerization of olefinic product under background reaction conditions ([2]; pH 9.0, 37° C.) | SMILES | elimination product formed in the absence of antibody ([2]; pH 9.0, 37° C.) | also measured
No isomerization | C/C(=C/c1ccccc1)C(=O)c1ccccc1 [Compound 4] | – | –
No isomerization | C/C(=C\c1ccccc1)C(=O)c1ccccc1 [Compound 3] | – | –
